Assay results: patent US20250051357A1, “SOLID FORMS OF A GPR119 AGONIST AND PROCESSES FOR THE PREPARATION THEREOF” (MANKIND PHARMA LTD., priority 2023, published 2025)
Several values for one entry are separate records, joined by “and”; a condition that tells them apart may be missing. Equal entries are not always repeated.

Assay: Particle size analysis, Malvern particle size analyzer (Mastersizer 3000)
Type: physicochemical
Settings: particle size distribution d90 of the isolated batch; dispersant water, Tween-80 paste, Mie model
Protocol: Particle size analysis was performed using a Malvern particle size analyzer. (Mastersizer 3000, Malvern Instrument Ltd).
Weigh accurately 100 mg of sample in 100 ml beaker. Add 3 drops of Tween-80 and 1 mL of water and make a paste with the help of glass rod. Then add 10 ml water and sonicate externally for 10 seconds with continued shaking.

PSD (d90)	Compound
84.9 μm and 62.4 μm and 106 μm	CCc1cnc(N2CCC([C@H](C)Oc3nn4cc(-c5ccc(S(C)(=O)=O)cc5F)nc4s3)CC2)nc1 [Form M-1, 2-((S)-1-(1-(5-ethyl-pyrimidin-2-yl)piperidin-4-yl)ethoxy)-6-(2-fluoro-4-(methylsulfonyl)phenyl) imidazo[2,1-b][1,3,4]thiadiazole]
99.8 μm	CCc1cnc(N2CCC([C@H](C)Oc3nn4cc(-c5ccc(S(C)(=O)=O)cc5F)nc4s3)CC2)nc1 [Form M-2, 2-((S)-1-(1-(5-ethyl-pyrimidin-2-yl)piperidin-4-yl)ethoxy)-6-(2-fluoro-4-(methylsulfonyl)phenyl) imidazo[2,1-b][1,3,4]thiadiazole]
30-60 μm	CCc1cnc(N2CCC([C@H](C)Oc3nn4cc(-c5ccc(S(C)(=O)=O)cc5F)nc4s3)CC2)nc1 [Form M-4, 2-((S)-1-(1-(5-ethyl-pyrimidin-2-yl)piperidin-4-yl)ethoxy)-6-(2-fluoro-4-(methylsulfonyl)phenyl) imidazo[2,1-b][1,3,4]thiadiazole]
50-80 μm	CCc1cnc(N2CCC([C@H](C)Oc3nn4cc(-c5ccc(S(C)(=O)=O)cc5F)nc4s3)CC2)nc1 [amorphous Form, 2-((S)-1-(1-(5-ethyl-pyrimidin-2-yl)piperidin-4-yl)ethoxy)-6-(2-fluoro-4-(methylsulfonyl)phenyl) imidazo[2,1-b][1,3,4]thiadiazole]
